Data reported in BindingDB's records for patent US9175357 (University of South Carolina, 2015).

Target: Serine/threonine-protein kinase PLK1 (Homo sapiens, UniProt P53350)
Test: Fluorescent Polarization Binding Assay
Conditions: pH 8; 25 °C

Chain of Serine/threonine-protein kinase PLK1 (P53350 whole entry): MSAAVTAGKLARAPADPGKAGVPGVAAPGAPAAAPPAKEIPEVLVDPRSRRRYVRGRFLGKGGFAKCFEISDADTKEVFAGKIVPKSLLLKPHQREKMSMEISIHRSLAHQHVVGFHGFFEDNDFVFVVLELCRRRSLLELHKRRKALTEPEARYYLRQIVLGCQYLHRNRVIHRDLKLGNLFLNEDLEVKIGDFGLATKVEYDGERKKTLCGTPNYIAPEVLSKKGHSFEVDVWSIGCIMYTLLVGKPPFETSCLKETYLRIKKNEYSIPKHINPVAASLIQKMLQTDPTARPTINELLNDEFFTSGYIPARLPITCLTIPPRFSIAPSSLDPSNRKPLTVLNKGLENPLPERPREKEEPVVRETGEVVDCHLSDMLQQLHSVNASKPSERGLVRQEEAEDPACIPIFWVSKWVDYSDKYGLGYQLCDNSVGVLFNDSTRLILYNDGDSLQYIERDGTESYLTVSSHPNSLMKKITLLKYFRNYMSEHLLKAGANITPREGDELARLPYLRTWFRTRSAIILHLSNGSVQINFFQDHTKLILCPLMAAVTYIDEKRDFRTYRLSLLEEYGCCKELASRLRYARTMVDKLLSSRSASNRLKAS

IC50: 550 µM
SMILES: CNC(=O)c1cc(CCCN2CCOCC2)n(-c2ccccc2)c1C [US9175357, 5600]
